“And” between values parts separate entries of the source, which are not always exact repeats. Equal values may be shown once.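 Five concentrations, 48 hours, 96-well plates. GI50 = concentration required for 50% inhibition of growth. TGI marks complete inhibition of growth.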
What follows are compounds tested on NCI-H226 lung (assay: inhibition of tumour cell growth, NCI panel, 48 h).

Row | SMILES | GI50 [µM] | TGI [µM]
1 | COc1ccc(CN2C(=O)C(Cl)=C(Nc3cccc(C(F)(F)F)c3)C2=O)cc1 | 2.57 | 17.4

The compounds below were run on OVCAR-3 ovarian (assay: inhibition of tumour cell growth, NCI panel, 48 h).

Row | SMILES | GI50 | TGI
2 | COc1cc(-c2nn(-c3cccc(NC(=O)c4ccccc4)c3)cc2-c2ccncc2)ccc1Cl | 0.313 µM | 13.9 µM
3 | CC(=O)[O-].CC(=O)[O-].O=C(N/N=C/c1cc(Cl)cc(Cl)c1O)c1ccncc1.[Cu+2] |  | > 100 µM
4 | O=C1CSC(=S)N1/N=C/c1ccc(Cl)c([N+](=O)[O-])c1 |  | 42.5 µM
5 | CCCCCCCCCCSC(=N)N (tested in a mixture with another compound) | 2.36 µM | 6.28 µM
6 | COc1cc2c(cc1OC)-c1cc(OC)c(OC)cc1C(CN(C)C)C2 (stereo unspecified) | > 10 µM | > 10 µM
7 | O=C(NC1CCCCC1)NS(=O)(=O)c1ccc(N2N=C3c4ccccc4CC3C2c2ccc(Cl)cc2)cc1 (stereo unspecified) | 18.4 µM | 42 µM
8 | c1ccc(-c2n(Cc3ccc4ccccc4n3)cc[n+]2Cc2ccc3ccccc3c2)cc1 | 0.766 µM | 2.63 µM
9 | C[C@@H]1CC[C@H]2C(C)(C)[C@H]3C[C@@]12CC[C@@]3(C)O |  | > 100 µM
10 | O=C(Nc1cccc(C(F)(F)F)c1)Nc1cccc(C(F)(F)F)c1 | 0.408 µM | 5.04 µM
11 | CC(C)(C)[Si](C)(C)OC1[C@@H](O[Si](C)(C)C(C)(C)C)[C@@H](CNC(=O)NC(=O)C(F)(F)F)O[C@H]1n1cnc2c(NC(=O)Nc3ccccc3)ncnc21 (stereo partly specified) | 7.63 µM | 14.5 µM
12 | CC(=C(c1ccc(OCCN2CCCCC2)cc1)c1ccc(OCCN2CCCCC2)cc1)c1ccc(Cl)cc1 | 0.415 µM | 0.783 µM
13 | C=C(C)C(=O)O[C@@H]1C[C@@]2(C)O[C@@H]2C[C@H](O)/C(C)=C/[C@H]2OC(=O)C(=C)[C@@H]21 |  | > 100 µM
14 | C=CC(=O)Nc1cc(Nc2nccc(-c3cn(C)c4ccccc34)n2)c(OC)cc1N(C)CCN(C)C | 1.4 µM and 1.38 µM | 2.93 µM and 3.04 µM
15 | CC(=O)OC1(C)N=NC2(CCCCC2)O1 (stereo unspecified) |  | > 100 µM
16 | Cc1ccc(-c2nc(N3CCNCC3)c3oc(-c4ccc(C)cc4)nc3n2)cc1 | 1.95 µM | 3.87 µM
17 | Cc1cc2c(cc1C)[n+](=O)c(C(=O)c1ccccc1)c(C(F)F)n2[O-] | 18.4 µM | > 100 µM

Row | SMILES | GI50 | TGI
18 | Cc1ccc(NC2=C3CCCCC3OC2=O)cc1 (stereo unspecified) | 68.7 µM | > 100 µM
19 | CN(C)c1ccc(/C=N/NC(=S)Nc2ccccc2)cc1 |  | > 100 µM
20 | COc1ccc2ncnc(Nc3ccc(OCc4ccccc4)cc3)c2c1 | 7.08 µM | > 23.1 µM
21 | O=C1c2c(F)c(F)c(F)c(F)c2C(=O)N1c1ccc(F)cc1F | 9.17 µM | 27.5 µM
22 | CC(C)[C@@H]1NC(=O)[C@]2(C)CSC(=N2)c2ccnc(c2)CNC(=O)C[C@@H](/C=C/CCS)OC1=O | 0.833 µM | 6.87 µM
23 | OC(c1cc(C(F)(F)F)nc2c(C(F)(F)F)cccc12)C1CCCCN1 (stereo unspecified) | 2.19 µM | 4.37 µM
24 | C/C=C/[C@@H]1O[C@@H]2COC(=O)C2=C[C@@H]1O | 4.19 µM | 22.2 µM
25 | COC(=O)/C=C/c1cc(OC(C)=O)c2c(c1)[C@@H](C(=O)OC)[C@H](c1ccc(OC(C)=O)c(OC(C)=O)c1)O2 | 0.0267 µM | 0.0681 µM
26 | Nc1nc2[nH]cc(CCc3ccc(C(=O)N[C@@H](CCC(=O)O)C(=O)O)cc3)c2c(=O)[nH]1 |  | > 100 µM
27 | Fc1cc(-c2nnc3n2N=C(c2ccc(Cl)cc2)CS3)c(Cl)cc1Cl | 13.6 µM | 35.8 µM
28 | CN1CCN(C(=O)COc2ccc(C34CC5CC(CC(C5)C3)C4)cc2)CC1 | 13.4 µM | 27.3 µM
29 | COc1ccccc1NC(=O)c1cc2cc(Br)ccc2cc1O | 2.48 µM | 9.06 µM
30 | CC(=O)OCc1ccc2c(c1)C(O)NC(=O)O2 (stereo unspecified) |  | 59.4 µM
31 | O=C(Nc1nn2c(-c3cc(C(F)(F)F)cc(C(F)(F)F)c3)nnc2s1)C1CCCC1 | 0.441 µM | > 37.8 µM
32 | COC(=O)[C@]12CC[C@@H](C)[C@H](C)[C@@H]1C1=CC[C@@H]3[C@@]4(C)C[C@@H](O)[C@H](O)[C@@](C)(CO)[C@@H]4[C@H](O)C[C@@]3(C)[C@]1(C)CC2 | 12.8 µM | 26 µM
